From patent publication US10124004B2, “Pyrido[3,4-d]pyrimidine derivative and pharmaceutically acceptable salt thereof” (Teijin Pharma Limited, priority 2015, dated 2018)

Experiments:
CDK2/cyclin A2 = target: T1, CDK2/cyclin A2 (Homo sapiens, UniProt P24941); experiment: Human CDK2/cyclin A2 inhibitory activity (QS S Assist CDK2/Cyclin A2_FP Kit, IMAP fluorescence polarization); assay type: biochemical; settings: Human CDK2/cyclin A2 inhibitory activity; read-out: CDK2 Activity symbol
T1 construct: purchased Carna Biosciences, Inc. QS S Assist CDK2/Cyclin A2_FP Kit
Method: Human CDK2/Cyclin A^2 Inhibitory Activity
Each compound was analyzed for CDK2/cyclin A2 inhibitory activity with an assay kit (QS S Assist CDK2/Cyclin A2_FP Kit, available from Carna Biosciences, Inc.). This assay kit determines kinase activity on the basis of the IMAP technology by Molecular Devices. Specifically, the kinase activity is determined through quantification of a variation in fluorescent polarization caused by binding of a kinase-phosphorylated fluorescent substance to an IMAP-binding reagent.
An assay buffer was prepared by 10-fold dilution of the 10× assay buffer attached to the kit with distilled water, and each solution was prepared with the assay buffer. The assay buffer contained 20 mM HEPES (pH 7.4), 0.01% Tween 20, and 2 mM dithiothreitol. A test compound solution was prepared by dilution of the test compound with dimethyl sulfoxide (DMSO) to a concentration 100 times higher than the final concentration and then 25-fold dilution with the assay buffer to a concentration four times higher than the final concentration. An ATP/substrate/Metal solution was prepared by five-fold dilution of the 5×ATP/substrate/Metal solution attached to the kit with the assay buffer. An enzyme solution was prepared by dilution of the CDK2/cyclin A2 attached to the kit with the assay buffer to a concentration twice higher than the final concentration (final concentration of CDK2/cyclin A2: 2.5 ng/well). A detection reagent was prepared by five-fold dilution of 5×IMAP-binding buffer A with distilled water and 400-fold dilution of the IMAP-binding reagent with the diluted buffer.
The test compound solution (5 μL/well) and the ATP/substrate/Metal solution (5 μL/well) were added to a 384-well plate, and the enzyme solution or the assay buffer (10 μL/well) was added to the plate (total amount of the reaction mixture: 20 μL/well) for initiation of enzymatic reaction. […] The reaction was performed at room temperature for 60 minutes, and the detection reagent (60 μL/well) was then added to the plate, followed by further reaction for 30 minutes at room temperature under light shielding conditions. Subsequently, fluorescent polarization was determined with a microplate reader at an excitation wavelength of 485 nm and an emission wavelength of 535 nm.
The percent inhibition of enzyme activity was calculated for each test compound (note: enzyme activity=100% in the case of addition of the enzyme solution and addition of DMSO instead of the test compound solution, whereas enzyme activity=0% in the case of addition of the assay buffer instead of the enzyme solution and addition of DMSO instead of the test compound solution). The percent inhibition of enzyme activity was fitted to a dose-response curve, to determine a 50% inhibitory concentration against CDK2/cyclin A2.
In each table, “+++” corresponds to IC50<10 nM, “++” 10 nM≤IC50<100 nM, and “+” 100 nM≤IC50.

CDK4/cyclin D3 = target: T2, CDK4/cyclin D3 (Homo sapiens, UniProt P11802); experiment: Human CDK4/cyclin D3 inhibitory activity (QS S Assist CDK4/Cyclin D3_FP Kit, IMAP fluorescence polarization); assay type: biochemical; settings: Human CDK4/cyclin D3 inhibitory activity; read-out: CDK4 Activity symbol
T2 construct: purchased Carna Biosciences, Inc. QS S Assist CDK4/Cyclin D3_FP Kit
Outline: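 IMAP fluorescence polarization kit: CDK4/cyclin D3 at 12.5-25 ng/well with kit ATP/substrate/metal mix in 20 mM HEPES pH 7.4, 0.01% Tween20, 2 mM DTT, 45 min at room temperature. FP read at 485/535 nm after 30 min binding; IC50 from dose-response fit of percent inhibition versus enzyme and no-enzyme controls.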

T2 sequence (P11802 whole entry): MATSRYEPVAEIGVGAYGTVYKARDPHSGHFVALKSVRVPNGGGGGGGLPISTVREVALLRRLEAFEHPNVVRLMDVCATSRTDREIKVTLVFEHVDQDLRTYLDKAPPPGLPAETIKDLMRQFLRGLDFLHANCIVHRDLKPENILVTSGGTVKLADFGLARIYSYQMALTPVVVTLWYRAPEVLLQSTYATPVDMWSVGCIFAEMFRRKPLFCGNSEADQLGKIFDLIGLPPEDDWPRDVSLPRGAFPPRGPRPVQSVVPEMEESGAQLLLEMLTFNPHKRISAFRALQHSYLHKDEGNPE
T2 sequence (P30281 whole entry partner): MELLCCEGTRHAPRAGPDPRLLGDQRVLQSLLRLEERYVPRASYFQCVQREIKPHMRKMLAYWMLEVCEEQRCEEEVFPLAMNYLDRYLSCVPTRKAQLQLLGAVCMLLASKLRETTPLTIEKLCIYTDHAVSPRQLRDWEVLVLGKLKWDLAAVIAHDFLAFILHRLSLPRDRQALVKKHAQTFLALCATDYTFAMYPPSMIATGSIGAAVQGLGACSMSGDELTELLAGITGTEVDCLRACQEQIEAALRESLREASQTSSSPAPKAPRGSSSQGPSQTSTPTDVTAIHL

| IC50 (CDK2/cyclin A2) | IC50 (CDK4/cyclin D3) | SMILES |
| --- | --- | --- |
| ≥ 100 nM | 10 to 100 nM | CC(C)Nc1nc(C(=O)N(C)C)cc2cnc(Nc3ccc(N4CCNCC4)cn3)nc12 [Compound 34] |
| ≥ 100 nM | < 10 nM | CC(=O)c1cc2cnc(Nc3ccc(N4CCNCC4)cn3)nc2c(NC(C)C)n1 [Compound 35] |
| ≥ 100 nM | ≥ 100 nM | CC(O)c1cc2cnc(Nc3ccc(N4CCNCC4)cn3)nc2c(NCC(F)F)n1 (stereo not drawn) [Compound 36] |
| ≥ 100 nM | < 10 nM | COC(C)c1cc2cnc(Nc3ccc(N4CCNCC4)cn3)nc2c(NC(C)C)n1 (stereo not drawn) [Compound 37] |
| ≥ 100 nM | < 10 nM | CO[C@@H](C)c1cc2cnc(Nc3ccc(N4CCNCC4)cn3)nc2c(NC(C)C)n1 [Compound 38] |
| ≥ 100 nM | < 10 nM | CO[C@H](C)c1cc2cnc(Nc3ccc(N4CCNCC4)cn3)nc2c(NC(C)C)n1 [Compound 39] |
| ≥ 100 nM | < 10 nM | CC(O)c1cc2cnc(Nc3ccc(N4CCNCC4)cn3)nc2c(NCC(F)(F)F)n1 (stereo not drawn) [Compound 40] |
| ≥ 100 nM | < 10 nM | CC(CO)Nc1nc(C(C)O)cc2cnc(Nc3ccc(N4CCNCC4)cn3)nc12 (stereo not drawn) [Compound 41] |
| 10 to 100 nM | < 10 nM | CC(C)Nc1nc(C(F)F)cc2cnc(Nc3ccc(N4CCN(C)CC4)cn3)nc12 [Compound 42] |
| 10 to 100 nM | < 10 nM | CC(C)Nc1nc(C(F)F)cc2cnc(Nc3ccc(N4CCOCC4)cn3)nc12 [Compound 43] |
| ≥ 100 nM | < 10 nM | COCc1cc2cnc(Nc3ccc(N4CCNCC4)cn3)nc2c(NC(C)C)n1 [Compound 44] |
| ≥ 100 nM | < 10 nM | CC(O)c1cc2cnc(Nc3ccc(N4CCNCC4)cn3)nc2c(NC(C)(C)CO)n1 (stereo not drawn) [Compound 45] |
| 10 to 100 nM | < 10 nM | CC(C)Nc1nc(C(F)F)cc2cnc(Nc3ccc(N4CCNCC4)cn3)nc12 [Compound 46] |
| 10 to 100 nM | < 10 nM | CC(C)Nc1nc(C(F)F)cc2cnc(Nc3ccc(CN4CCNCC4)cn3)nc12 [Compound 47] |
| ≥ 100 nM | < 10 nM | CC(O)c1cc2cnc(Nc3ccc(N4CCNCC4)cn3)nc2c(NC2CCC2)n1 (stereo not drawn) [Compound 48] |
| 10 to 100 nM | < 10 nM | CC(C)Nc1nc(C(F)F)cc2cnc(Nc3ccc(N4CCN(CCO)CC4)cn3)nc12 [Compound 49] |
| 10 to 100 nM | < 10 nM | CC(C)Nc1nc(C(F)F)cc2cnc(Nc3ccc(N4CCC(O)CC4)cn3)nc12 [Compound 50] |
| ≥ 100 nM | 10 to 100 nM | CC(C)Nc1nc(C(F)F)cc2cnc(Nc3ccc(N4CCC(CCCO)CC4)cn3)nc12 [Compound 51] |
| 10 to 100 nM | < 10 nM | CC(C)Nc1nc(C(F)F)cc2cnc(Nc3ccc(N4CCC(N)C4)cn3)nc12 (stereo not drawn) [Compound 52] |
| 10 to 100 nM | < 10 nM | CC(C)Nc1nc(C(F)F)cc2cnc(Nc3ccc(N4CCC(O)C4)cn3)nc12 (stereo not drawn) [Compound 53] |
| ≥ 100 nM | < 10 nM | CC(O)c1cc2cnc(Nc3ccc(N4CCNCC4)cn3)nc2c(NC(C)C(F)(F)F)n1 (stereo not drawn) [Compound 54] |
| 10 to 100 nM | < 10 nM | CC(C)Nc1nc(C(F)F)c(F)c2cnc(Nc3ccc(N4CCNCC4)cn3)nc12 [Compound 55] |
| ≥ 100 nM | < 10 nM | CC(=O)c1cc2cnc(Nc3ccc(N4CCNCC4)cn3)nc2c(NC2CCOCC2)n1 [Compound 56] |
| ≥ 100 nM | < 10 nM | CC(=O)c1cc2cnc(Nc3ccc(N4CCNCC4)cn3)nc2c(NC2CCCC2)n1 [Compound 57] |
| ≥ 100 nM | 10 to 100 nM | CCNc1nc(C(C)=O)cc2cnc(Nc3ccc(N4CCNCC4)cn3)nc12 [Compound 58] |
| ≥ 100 nM | < 10 nM | CC(=O)c1cc2cnc(Nc3ccc(N4CCNCC4)cn3)nc2c(NC(C)(C)C)n1 [Compound 59] |
| ≥ 100 nM | < 10 nM | Cc1c(C(F)F)nc(NC(C)C)c2nc(Nc3ccc(N4CCNCC4)cn3)ncc12 [Compound 60] |

| IC50 (CDK2/cyclin A2) | IC50 (CDK4/cyclin D3) | SMILES |
| --- | --- | --- |
| ≥ 100 nM | < 10 nM | CC(C)Nc1nc(C(C)O)cc2cnc(Nc3ccc(N4CCC(O)CC4)cn3)nc12 (stereo not drawn) [Compound 61] |
| ≥ 100 nM | < 10 nM | Cc1c(CO)nc(NC(C)C)c2nc(Nc3ccc(N4CCNCC4)cn3)ncc12 [Compound 62] |
| ≥ 100 nM | < 10 nM | CC(C)Nc1nc([C@H](C)O)c(F)c2cnc(Nc3ccc(N4CCNCC4)cn3)nc12 [Compound 63] |
| ≥ 100 nM | < 10 nM | CC(C)Nc1nc([C@@H](C)O)c(F)c2cnc(Nc3ccc(N4CCNCC4)cn3)nc12 [Compound 64] |
| ≥ 100 nM | 10 to 100 nM | Cc1c([C@H](C)O)nc(NC(C)C)c2nc(Nc3ccc(N4CCNCC4)cn3)ncc12 [Compound 65] |
| ≥ 100 nM | < 10 nM | Cc1c([C@@H](C)O)nc(NC(C)C)c2nc(Nc3ccc(N4CCNCC4)cn3)ncc12 [Compound 66] |
| 10 to 100 nM | < 10 nM | CC(C)Nc1nc(C(F)F)cc2cnc(Nc3ccc(N4CCNCC4)c(F)n3)nc12 [Compound 67] |
| ≥ 100 nM | < 10 nM | CC(=O)c1nc(NC(C)C)c2nc(Nc3ccc(N4CCNCC4)cn3)ncc2c1C [Compound 68] |
| ≥ 100 nM | < 10 nM | CC(O)c1cc2cnc(Nc3ccc(N4CCNCC4)cn3)nc2c(NCc2ccccc2)n1 (stereo not drawn) [Compound 69] |
| ≥ 100 nM | < 10 nM | CC(O)c1cc2cnc(Nc3ccc(N4CCNCC4)cn3)nc2c(NC(C)c2ccccc2)n1 (stereo not drawn) [Compound 70] |
| ≥ 100 nM | < 10 nM | CC(C)Nc1nc(C(C)O)cc2cnc(Nc3ccc(N4CCN(C)CC4)cn3)nc12 (stereo not drawn) [Compound 71] |
| ≥ 100 nM | < 10 nM | CC(C)Nc1nc(C(C)O)cc2cnc(Nc3ccc(N4CCOCC4)cn3)nc12 (stereo not drawn) [Compound 72] |
| 10 to 100 nM | < 10 nM | CC(C)Nc1nc(C(F)F)cc2cnc(Nc3ccc(N4CCNCC4)nn3)nc12 [Compound 73] |
| ≥ 100 nM | < 10 nM | CC(C)Nc1nc(C(C)O)cc2cnc(Nc3ccc(N4CCN(CCO)CC4)cn3)nc12 (stereo not drawn) [Compound 74] |
| ≥ 100 nM | < 10 nM | CC(C)Nc1nc(C(C)O)cc2cnc(Nc3ccc(N4CCC(CCCO)CC4)cn3)nc12 (stereo not drawn) [Compound 75] |
| ≥ 100 nM | < 10 nM | CC(C)Nc1nc(C(C)O)cc2cnc(Nc3ccc(N4CCC(N)C4)cn3)nc12 (stereo not drawn) [Compound 76] |
| ≥ 100 nM | < 10 nM | CC(C)Nc1nc(C(C)O)cc2cnc(Nc3ccc(N4CCC(O)C4)cn3)nc12 (stereo not drawn) [Compound 77] |
| ≥ 100 nM | < 10 nM | CC(C)Nc1nc(C(C)O)cc2cnc(Nc3ccc(C4CCNCC4)cn3)nc12 (stereo not drawn) [Compound 78] |
| ≥ 100 nM | < 10 nM | CC(C)Nc1nc(C(C)O)cc2cnc(Nc3ccc(CN4CCNCC4)cn3)nc12 (stereo not drawn) [Compound 79] |
| 10 to 100 nM | < 10 nM | CC(C)Nc1nc(C(F)F)cc2cnc(Nc3ccc(N4CCN(C)CC4=O)cn3)nc12 [Compound 80] |
| 10 to 100 nM | < 10 nM | CC(C)Nc1nc(C(F)F)cc2cnc(Nc3ccc(OCCN(C)C)cn3)nc12 [Compound 81] |
| ≥ 100 nM | 10 to 100 nM | CC(C)Nc1nc(C(F)F)cc2cnc(Nc3ccccn3)nc12 [Compound 82] |
| 10 to 100 nM | < 10 nM | CC(C)Nc1nc(C(F)F)cc2cnc(Nc3ccc(N4CCNC(=O)C4)cn3)nc12 [Compound 83] |
| 10 to 100 nM | < 10 nM | CC(C)Nc1nc(C(F)F)cc2cnc(Nc3ccc(N4CCN(C)C(=O)C4)cn3)nc12 [Compound 84] |
| 10 to 100 nM | 10 to 100 nM | CC(C)Nc1nc(C(F)F)cc2cnc(Nc3ccc(NC(N)=O)cn3)nc12 [Compound 85] |
| ≥ 100 nM | 10 to 100 nM | CC(=O)Nc1ccc(Nc2ncc3cc(C(F)F)nc(NC(C)C)c3n2)nc1 [Compound 86] |
| < 10 nM | < 10 nM | CC(C)Nc1nc(C(F)F)cc2cnc(Nc3ccc(N)cn3)nc12 [Compound 87] |
